Consider three compounds from patent publication US20120071501A1, “USE OF EXTRACTS OF THE GENUS CIMICIFUGA AS ORGANOSELECTIVE MEDICINES FOR TREATING DISEASES OF THE GENITOURINARY TRACT CAUSED BY SEX HORMONES” (Bionorica AG, priority 2001, published 2012).

Test [1] deals with urinary bladder of ovarectomized rats. As to the kind of experiment: Differential bladder tonus (bladder elasticity) of ovarectomized rats. In kind it is in vivo, rat. Here is the method: Following a three-month treatment of ovarectomized rats with Cimicifuga racemosa extract, the maximum pressure in the urinary bladder [in mm Hg] and the minimum pressure [in mm Hg] following relaxation of the bladder were determined by instillation of 1 ml of physiological saline solution.

Test [2] concerns estrogen receptor of the alpha-subtype. The test can be described thus: Gene expression of estrogen receptor alpha-subtype in the prostate of male castrated rat. In kind it is in vivo.
Test [3] deals with estrogen receptor-alpha. As to the kind of experiment: Expression of estrogen receptor-alpha in the urinary bladder. It is filed as in vivo, rat. The conditions noted are these: ovarectomized rats. From the text: In the bladder both the estrogen receptor ER-alpha and ER-beta are expressed.
In test [4] the test system is estrogen receptor-beta. As to the kind of experiment: Gene expression of estrogen receptor-beta in the prostate of male castrated rat. In kind it is in vivo.
Test [5] concerns rat prostate. As to the kind of experiment: In-vivo experiments in the rat prostate in the whole-body model. The note with it: castrated rat.
The test system of test [6] is IGF1. The test can be described thus: IGF1 gene expression in the prostate of castrated male rats. It is filed as in vivo, rat.

Turning to `O=C(c1ccc(OCN2CCCCC2)cc1)c1c(-c2ccc(O)cc2)sc2cc(O)ccc12` [Raloxifen], the “differential pressure between maximum and minimum pressure (bladder elasticity)” value in test [1] (highest Cimicifuga dose 400 mg/kg/d, compared with Raloxifen) was “comparable”.

As for `C[C@]12CC[C@@H]3c4ccc(O)cc4CC[C@H]3[C@@H]1CC[C@@H]2O` [estradiol, 17β-estradiol], the “differential pressure between maximum and minimum pressure (bladder elasticity)” value in test [1] (three-month treatment, instillation of 1 ml physiological saline, in comparison with placebo controls) is recorded as “most effective substance”. Besides, in test [2], the “gene expression of the estrogen receptor of the alpha-subtype in the prostate” value was “significantly inhibit”. Moreover, in test [3], the “expression of the estrogen receptor-alpha in the urinary bladder” value was “regulate down”. In addition, in test [4], the “gene expression of the estrogen receptor-beta in the prostate” value is “without having an effect”.

As for `C[C@]12CC[C@H]3[C@@H](CCC4=CC(=O)CC[C@@]43C)[C@@H]1CC[C@@H]2O` [testosterone], in test [5], the “prostate regression induced by castration” value is “could be antagonized”. Besides, in test [6], the “gene expression of the growth factor IGF1 in the prostate” value is on record as “regulated up”.
